Assay results published in patent EP1200099B1, “SYNERGISTIC COMPOSITION COMPRISING DAUNORUBICIN DERIVATIVES AND ANTI[…]” (Pharmacia Italia S.p.A., priority 1999, dated 2001).

Tested on: disseminated L1210 murine leukemia
Test: Antileukemic activity on disseminated L1210 murine leukemia (in vivo survival)
Parameters: species or system mouse CD2F1
Conditions: for toxicity (in words): single agents: gemcitabine 15 and 60 mg/kg ip day 1, PNU 159548 1 and 1.5 mg/kg iv day 1
From the text: The superadditive actions of the combination preparation of the present invention may be shown for instance by in vivo tests for the antileukemic activity on disseminated L1210 murine leukemia. The combination of Ia with gemcitabine (Table 1) or 5-Fluorouracil tested at the different doses and schedules, produces favorable ILS% values (Increase in life span: [(median survival time of treated mice/median survival time of controls)x 100]-100), indicating a synergistic effect.
By combining gemcitabine and PNU 159548 at the same doses and with the same schedule, an increase of activity with ILS% values of 117 and 204 were observed, indicating a synergistic effect as shown by the combination index (CI) of […], respectively.
For these experiments Ia was solubilized in [Cremophor® /EtOH = 6.5:3.5]/[normal saline]=20/80 v/v, while standard pharmaceutical preparation were used for the antimetabolite compounds.

[1] = gemcitabine alone, ip day +1, 15 mg/kg/day
[2] = gemcitabine alone, ip day +1, 60 mg/kg/day
[3] = PNU 159548 alone, iv day +1, 1 mg/kg/day
[4] = PNU 159548 alone, iv day +1, 1.5 mg/kg/day

SMILES	ILS% [1] [%]	LTS: long-term survivors (>60 days) at the end of the experiments [1]	TOX: Number of toxic deaths/number of mice [1]	ILS% [2] [%]	LTS: long-term survivors (>60 days) at the end of the experiments [2]	TOX: Number of toxic deaths/number of mice [2]	toxicity (in words)	LTS: long-term survivors (>60 days) at the end of the experiments [3]	TOX: Number of toxic deaths/number of mice [3]	ILS% (PNU 159548 alone, iv day +1, 1 mg/kg/day, L1210 cells 10^5/mouse IV on Day 0) [%]	ILS% [4] [%]	LTS: long-term survivors (>60 days) at the end of the experiments [4]	TOX: Number of toxic deaths/number of mice [4]
Nc1ccn([C@@H]2O[C@H](CO)[C@@H](O)C2(F)F)c(=O)n1 [Gemcitabine, gemcitabine]	50	0/10	0/10	83	0/20	0/20	without toxicity	–	–	–	–	–	–
CC(=O)[C@]1(O)Cc2c(O)c3c(c(O)c2[C@@H](O[C@H]2C[C@H](N4CC4)[C@H](OS(C)(=O)=O)[C@H](C)O2)C1)C(=O)c1ccccc1C3=O [PNU 159548, 4-demethoxy-3'-deamino-3'-aziridinyl-4'-methansulfonyl daunorubicin]	–	–	–	–	–	–	without toxicity	0/10	0/10	33	67	0/20	0/20
